In patent publication US11981750B2 (priority 2016, dated 2024):
Starred links: 1 amine or outer side, 2 acyl side, 3 side chain; linkers in the order of their positions; H or OH if unused. Non-standard residues stand in square brackets, D forms with d. Residues, ends and D or L forms follow the SMILES beside them. *: point of attachment. TtdDga = O=C(COCC(=O)[*:2])NCCCOCCOCCOCCCN[*:1]; Arachidoyl = CCCCCCCCCCCCCCCCCCCC(=O)*; NMeV = CN[CH](C(=O)O)C(C)C

Key:
[1] = test system: anti-Map antibodies in sera from bovine infected by Map; test: Antibody ELISA with bovine sera (Map-infected versus healthy controls); assay type: binding; conditions: for ROC analysis of ELISA antibody response, area under the curve: 60 MAP+ bovine sera and 53 control sera
[2] = test system: sera of animals infected by M. bovis; assay type: binding, bovine; conditions: serial twofold dilution of sera
[3] = test system: sheep sera naturally or experimentally infected with S-type strains of Map; test: Antibody ELISA with sheep sera infected with S-type strains of Map; assay type: binding; conditions: control n=15, positive n=39
[4] = test system: PBMCs isolated from cows naturally infected with Map; test: Flow cytometry of CD25+ T and B cells after PBMC stimulation with lipopeptides; assay type: cell-based, cattle
[5] = test system: PBMCs isolated from control cows and cows naturally infected with Map; test: Cytokine secretion by PBMCs after 24-hour stimulation with Map lipopeptides; assay type: cell-based, cattle; conditions: 1, 5, 10 μg/ml
Protocol: Peripheral blood mononuclear cells (PBMCs) were isolated from control non-infected (n=4) and cattle naturally infected with C-type Map (n=4) to determine if lipoproteins, L3P and L5P (structures disclosed in FIG. 9), can elicit immunological responses. Sixty ml of blood was collected via jugular venipuncture into a syringe containing 2× acid-citrate-dextrose to obtain PBMCs.
PBMCs were resuspended at a final concentration of 8×10^6/ml in complete medium consisting of RPMI-1640 with 2 mM 1-glutamine and 25 mM HEPES (Gibco, Grand Island, NY) and supplemented with 10% fetal calf serum (Gibco), 100λ penicillin-streptomycin (Gibco). Cells were plated in 24-well culture plates and incubated for 24 hr at 39° C. in 5% CO2 in a humidified atmosphere with the following treatment groups, nonstimulated (NS; negative control), pokeweed mitogen (PWM, 10 μg/ml, positive control; Sigma, St. Louis, MO), and four antigens that included whole cell sonicated extracts of Map strains K-10 and S397 (10 μg/ml); lipoproteins L3P and L5P (1, 5, 10 μg/ml concentrations). The lipoproteins had to be solubilized in 100% methanol to 1 mg/ml concentrations and then diluted in the complete medium to final concentrations indicated above. […] After a 24-hr stimulation, the supernatants were harvested by centrifugation at 400×g for 5 min. Supernatants were removed without disturbing the cells in culture and stored at −20° C. until cytokine measurement. Cytokines IFN-γ, IL-1, IL-2, IL-4, IL-6 and TNF-α were all measured using Ciraplex bovine multiplex cytokine arrays (Aushon Biosystems, Billerica, MA).

physchem = conditions: organic solvents (DMSO, CHCl3, CH2Cl2, MeOH and EtOH)
[6] = PBMCs from infected cows, lipopeptide 1, 5, 10 μg/ml

SMILES	ROC analysis of ELISA antibody response, area under the curve ([1]; antigen in ethanol)	cross-reaction with sera of animals infected by M. bovis [2]	immunodetection of L5P by sheep sera (anti-L5P antibodies) [3]	CD25+ B cells response [4, 6]	proliferation of CD25+ CD8 T cells [4, 6]	CD25+ CD4 or CD25+ γδ T cell populations, difference between L3P and L5P ([4]; data not shown)	effect of lipopeptide concentration on TNF-α secretion by PBMCs ([5]; P<0.0006)	IFN-γ cytokine response ([5]; 24-hr stimulation)	IL-1β cytokine response ([5]; 24-hr stimulation)	TNF-α cytokine response ([5]; 24-hr stimulation)	solubility in water or aqueous buffers	solubility (physchem)	ROC analysis of ELISA antibody response, area under the curve ([1]; antigen in PBS)	ELISA antibody response against the lipid moiety of L5P, discrimination of control from infected animals ([1]; lipid solubilized in ethanol, bovine sera)
CCCCCCCCCCCCCCCCCCCC(=O)N[C@H](Cc1ccccc1)C(=O)N(C)[C@H](C(=O)N[C@H](C(=O)N[C@@H](Cc1ccccc1)C(=O)N[C@@H](C)C(=O)OC)[C@@H](C)CC)C(C)C [L5P] (Arachidoyl-[dF][NMeV]IFA-OMe)	0.97	does not cross-react	less than half of the sheep sera do not appear to contain anti-L5P antibodies	stronger response compared to L3P	remained static	No significant differences	dose-dependent effect	elicited cytokine responses	elicited cytokine responses	elicited cytokine responses	insoluble	< 1000 µg/mL	–	–
CCC(C)C(NC(=O)C(C(C)C)N(C)C(=O)C(N)Cc1ccccc1)C(=O)NC(Cc1ccccc1)C(=O)NC(C)C(=O)NCCCOCCOCCOCCCNC(=O)COCC(=O)O (stereo not drawn) [L5P^H2O] (H-F[NMeV]IFA-TtdDga; configuration not given here)	0.9313	–	–	–	–	–	–	–	–	–	–	–	0.9453	–
CCCCCCCCCCCCCCCCCCCC(=O)O [lipid moiety, eicosanoic acid]	–	–	–	–	–	–	–	–	–	–	–	–	–	does not discriminate control from infected animals
